Measured values taken from EP4467137A1, “TREATMENT OF FRONTOTEMPORAL DEMENTIA OR FRONTOTEMPORAL LOBAR DEMENTIA” (Universidad Autónoma de Madrid, priority 2023, dated 2024).

Experiments:
[1] = LPS in vivo model: sickness behaviour (body weight, locomotion, novel object recognition); design: species or system mouse; conditions: 20 mg·kg^-1 i.p.
Method: The LPS in vivo model was induced, sickness behaviour evaluated (locomotion test and novel object recognition test) and cytokines measured by qPCR as described by [Fernández-Mendivil, Cristina et al. "Protective role of microglial HO-1 blockade in aging: Implication of iron metabolism." Redox biology vol. 38 (2021): 101789. doi:10.1016/j.redox.2020.101789]. The panel of mouse cytokines, chemokines, and growth factors were measured by Luminex xMAP technology for multiplexed quantification at Evetechnologies (https://www.evetechnologies.com/)
(§1) Example 2.3.1. Treatment with Compound 1 reduces LPS-induced cytokine expression and release in mouse brain. Mice were treated i.p. with a daily dose of 20 mg·kg^-1 of Compound 1 for 4 consecutive days. On the last day, LPS (0.5 mg·kg^-1) was injected i.p. one h after the compound. Thereafter, behavioural, and biochemical outcomes were analysed at different time points.
Example 2.3.3. Treatment with Compound 1 reduces LPS-induced sickness behaviour. Peripheral administration of LPS produces neuroinflammation and induces a "sickness behaviour" in mice that is characterized by body weight loss, reduction of the locomotor activity and a cognitive decline.

[2] = Cell viability/toxicity by the MTT method; type: cell-based; conditions: human, effect of the compound per se on AREc332 cells
Source text: Based on the results obtained (Table 2), Compound 1 was selected for further in vitro and in vivo studies as it was endowed with the best anti-neuroinflammatory activity. Table 2: Comparative in vitro results. Cell viability/toxicity: effect of the compound per se on cell viability of […] cells measured with the MTT method. Anti-neuroinflammatory effect: % Reduction of nitrites in primary rat glial cultures. PAMPA-BBB: In vitro blood-brain barrier permeation assay, permeation rate Pe (10-6 cm.s-1). NRF2, CD (µM): Concentration of compound that doubles de activation of NRF2. ORAC: Oxygen radical absorbance capacity. LOX-5: lipoxygenase-5.

Iba-1 = assay: LPS in vivo model: brain microgliosis by Iba-1 immunofluorescence; design: species or system mouse; conditions: 20 mg·kg^-1 i.p.; 4 and 24 h after LPS
Method: Immunofluorescence labelling in in vitro and in vivo samples was performed as described in [Luengo, Enrique et al. "Implication of type 4 NADPH oxidase (NOX4) in tauopathy." Redox biology vol. 49 (2022): 102210. doi:10.1016/j.redox.2021.102210 ].
as §1
Example 2.3.2. Treatment with Compound 1 reduces LPS-induced microgliosis in mouse brain. Microglial cells constitute the immune cells of our brain; therefore, they play a key role in regulating neuroinflammation. Microgliosis was evaluated using Iba-1 as a microglial marker in immunofluorescence experiments 4 h and 24 h after the inflammatory stimuli (LPS).

[3] = In vitro blood-brain barrier permeation assay (PAMPA-BBB); type: in vitro ADME
Source text: The in vitro blood-brain barrier permeation assay (PAMPA-BBB) was used for predicting the brain penetration of compounds, following a described method [Herrera-Arozamena, Clara et al. "Resveratrol-Based MTDLs to Stimulate Defensive and Regenerative Pathways and Block Early Events in Neurodegenerative Cascades." Journal of medicinal chemistry vol. 65,6 (2022): 4727-4751. doi:10.1021/acs.jmedchem.1c01883]. The results are given as the mean ± SD. In each experiment, 11 quality control standards of known BBB permeability were included to validate the analysis set.

## COc1ccc2c(c1)CC(c1c[nH]c3ccc(OC)cc13)N2 (stereo not shown) [Compound 1, 5-Methoxy-3-(5-methoxyindolin-2-yl)-1H-indole]
[1]; 4 and 8 h after LPS exposure, values similar to saline animals
  Locomotion, line crossings of an imaginary grid: improved
[1]; compared to LPS-vehicle treated animals
  body weight loss: less reduction of the body weight loss
[1]; compared to vehicle-LPS treated animals
  cognitive decline (NOR test, discrimination index): did not show cognitive decline
[2]
  CC50: > 30 µM
Iba-1
  mean fluorescence intensity of Iba-1 per cell: restored to saline levels
[3]
  PAMPA-BBB predicted brain penetration: cns+
[3]; PAMPA, permeation rate, mean ± SD, read-out: PAMPA-BBB Pe
  Papp: 12.9 ± 0.9 ×10⁻⁶ cm/s
